Residue numbers refer to the chain shown, from its start.
What was measured:
mutant GnRHR = target: T1, mutant GnRHR (Homo sapiens, UniProt P30968, E90K); assay: Pharmacological rescue of GnRHR mutants (Example 1), IP production and agonist binding; assay type: cell-based
T1 construct: expressed in transfected cells; host or cells: COS-7
T1 sequence (P30968 1-328 E90K): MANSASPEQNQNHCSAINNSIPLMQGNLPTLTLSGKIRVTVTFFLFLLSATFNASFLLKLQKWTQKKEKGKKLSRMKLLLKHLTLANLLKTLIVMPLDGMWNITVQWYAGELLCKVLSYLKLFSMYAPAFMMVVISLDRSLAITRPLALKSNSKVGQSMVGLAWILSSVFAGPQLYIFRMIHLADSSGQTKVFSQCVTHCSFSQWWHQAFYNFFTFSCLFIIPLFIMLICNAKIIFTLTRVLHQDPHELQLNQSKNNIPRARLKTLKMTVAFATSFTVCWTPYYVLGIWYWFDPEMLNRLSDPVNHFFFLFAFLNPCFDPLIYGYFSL
Experimental: WT and mutant hGnRHR were separately transiently expressed in COS-7 cells using standard molecular biology methods (Leaños-Miranda et al., J. Clin. Endo. Metab., 87:4825-8, 2002). Briefly, cells were maintained in growth medium (DMEM) containing 10% fetal calf serum (FCS; Life Technologies, Grand Island, N.Y.) and 20 μg/ml gentamicin (Gemini Bioproducts, Calabasas, Calif.) in a 5% CO2 humidified atmosphere at 37° C. One hundred thousand cells/well were seeded in 24-well plates (Costar, Cambridge, Mass.). Twenty-four hours after plating, the cells were transfected with 0.05 μg DNA per well (for IP production assay) or 0.1 μg DNA per well (for saturation binding studies) using 2 μl lipofectamine in 0.25 ml OPTI-MEM containing 1% DMSO (vehicle) or 1 μg/ml of each indole, quinoline or erythromycin macrolide prepared in vehicle.
After five hours, 0.25 ml of DMEM containing 20% FCS with or without indole, quinoline or erythromycin macrolide (as indicated) was added to each well. The cells were incubated for an additional 18 hours at 37° C., then washed and fresh growth medium with (1 μg/ml) or without the therapeutic agent was added to the cells for another 28 hours at 37° C. […]
The quantification of IP production and saturation binding were determined as described previously (Huckle and Conn, Methods Enzymol. 141:149-55, 1987).
To determine the saturation binding, the cells were washed twice with warm DMEM/BSA prior to incubating with the GnRH agonist [^125I]-buserelin [D-tert-butyl-Ser^6, des-Gly^10, Pro^9, ethylamide-GnRH; specific activity, 700 μCi/μg; 230,000 cpm/0.5 ml, pH 7.4; Hoeschst-Roussel Pharmaceuticals (Somerville, N.J.); also see Marian et al., Mol. Pharmacol. 19:399-405, 1981] and nonspecific binding was measured in the presence of 1 μM GnRH (NIDDK National Hormone and Peptide Program, Bethesda, Md.). […] The sample was transferred to a glass tube and counted in a gamma counter (Packard Instruments; Downers Grove, Ill.). Specific binding was calculated by subtracting non-specific binding (binding measured in the presence of 1 μM GnRH) from total binding (no GnRH). […]

WT hGnRHR = target: T2, WT hGnRHR (Homo sapiens, UniProt P30968); assay: IP production in COS-7 cells transfected with WT hGnRHR, Buserelin dose response (FIG. 13 inset); assay type: cell-based; details: COS-7 cells transfected with 100 ng of WT hGnRHR
T2 construct: expressed in transfected cells; host or cells: COS-7
T2 sequence (P30968 1-328): T1 sequence (P30968 1-328 E90K) with K90E
Experimental: For tranfections, 5×10^4 COS-7 cells were plated in 0.25 ml growth medium in 48 well Costar cell culture plates. Twenty-four hours after plating, the cells were washed once with 0.5 ml OPTI-MEM (Promega, Madison, Wis.) then transfected with 100 ng total cDNA (pcDNA3.1+without insert “empty vector” was included to bring the total cDNA to 100 ng/well, unless otherwise indicated) and 1 μl lipofectamine in 0.125 ml OPTI-MEM (room temperature), according to manufacture's instructions. For co-transfection, the cells were co-transfected with WT GnRHR (5 ng/well) and empty vector or mutant GnRHR (95 ng/well) or other GPCR cDNAs, as indicated, using 1 μl Lipofectamine (Promega, Madison, Wis.) in 0.125 ml Opti-MEM. Constant amounts of Opti-MEM were achieved by the addition of sterile milli-Q H2O to the cDNA mixtures. […]
The IP production was measured 27 hours after transfection, as described in Example 1, except that following the preloading, cells were treated for 2 hours in 0.25 ml of Buserelin (100 nM), and at the end of the incubation period, the cells were frozen and thawed in the presence of 0.5 ml of 0.1 M formic acid. Data (n≧3) was analyzed with one-way ANOVA and then paired Student's t-test (SigmaStat 3.0, Jandel Scientific Software, Chicago, Ill.; P<0.05 was considered significant). […]

## COc1cc2c(cc1OC)CN(C(=O)c1cc3c(OCC[C@@H]4CCCCN4)c(-c4cc(C)cc(C)c4)c(=O)[nH]c3cc1Cl)CC2.O=C(O)C(F)(F)F [Q08, (2S)-2-(2-{[7-chloro-6-[(6,7-dimethoxy-3,4-dihydroisoquinolin-2(1H)-yl)carbonyl]-3-(3,5-dimethylphenyl)-2-oxo-1,2-dihydroquinolin-4-yl]oxy}ethyl)piperidinium trifluoroacetate]
Mutant GnRHR
  restoration of function to mutant GnRHR: known not to bind to or restore function to mutant protein

## CCNC(=O)[C@@H]1CCCN1C(=O)[C@H](CCCNC(=N)N)NC(=O)[C@H](CC(C)C)NC(=O)[C@@H](COC(C)(C)C)NC(=O)[C@H](Cc1ccc(O)cc1)NC(=O)[C@H](CO)NC(=O)[C@H](Cc1c[nH]c2ccccc12)NC(=O)[C@H](Cc1cnc[nH]1)NC(=O)[C@@H]1CCC(=O)N1 [Buserelin, D-tert-butyl-Ser^6, des-Gly^10, Pro^9, ethylamide-GnRH]
WT hGnRHR
  Buserelin concentration giving maximal response on IP production: 10^−7 M

## Cc1cc(C)cc(-c2[nH]c3ccc(C(C)(C)C(=O)N4CCN(C)CC4)cc3c2[C@H](C)CNCCc2ccc(C(=O)O)cc2)c1.O=C(O)C(F)(F)F [IN31b, (2S)-N-[2-(4-carboxyphenyl)ethyl]-2-[5-[1,1-dimethyl-2-(4-methylpiperazin-1-yl)-2-oxoethyl]-2-(3,5-dimethylphenyl)-1H-indol-3-yl]propan-1-aminium trifluoroacetate]
Mutant GnRHR
  restoration of function to mutant GnRHR: known not to bind to or restore function to mutant protein

## CC[C@H]1OC(=O)[C@H](C)[C@@H](O[C@H]2C[C@@](C)(OC)[C@@H](O)[C@H](C)O2)[C@H](C)[C@@H](O[C@@H]2O[C@H](C)C[C@H](N(C)C)[C@H]2O)[C@](C)(O)C[C@@H](C)C(=O)[C@H](C)[C@@H](O)[C@]1(C)O [A-7662.0, Erythromycin A]
Mutant GnRHR
  restoration of function to mutant GnRHR: known not to bind to or restore function to mutant protein

Source: US7842470B2, “Method for pharmacoperones correction of GnRHR mutant protein misfolding” (Oregon Health & Science University, priority 2001, dated 2010)
